# Columns and labels:
# H441 lung cancer cells = assay: Anti-proliferative MTT assay; conditions: Homo sapiens, NCI-H441, 24 h; for inhibition at 10 µM: read-out: % Growth inhibition ± SEM H441; for IC50: read-out: IC50 (µM) ± SEM H441, MTT, 24 h, n = 3
# EGFR = EGFR (Homo sapiens, UniProt P00533); assay: EGFR kinase assay (PGT-coated 96-well plates); type: biochemical; conditions: read-out: IC50 (nM) ± SEM EGFR
# Experimental: (§1) The EGFR kinase assay was carried out in 96-well plates coated with PGT (poly l-glutamic acid l-tyrosine, 4:1, Sigma Aldrich, St. Louis, MO) as previously described. IC50 values were calculated using GraphPad Prism 5. Each experiment was carried out at least three times. The VEGFR-2 kinase assay was carried out in 96-well streptavidin coated plate using recombinant human VEGFR-2/KDR ELISA kit according to manufacturer’s instructions.
# [1] = target: T1, recombinant human VEGFR-2/KDR (Homo sapiens, UniProt P35968); assay: VEGFR-2 kinase assay (VEGFR-2/KDR ELISA kit); type: biochemical; conditions: read-out: IC50 (nM) ± SEM VEGFR-2
# T1 construct: purchased
# T1 sequence (P35968 20-1356): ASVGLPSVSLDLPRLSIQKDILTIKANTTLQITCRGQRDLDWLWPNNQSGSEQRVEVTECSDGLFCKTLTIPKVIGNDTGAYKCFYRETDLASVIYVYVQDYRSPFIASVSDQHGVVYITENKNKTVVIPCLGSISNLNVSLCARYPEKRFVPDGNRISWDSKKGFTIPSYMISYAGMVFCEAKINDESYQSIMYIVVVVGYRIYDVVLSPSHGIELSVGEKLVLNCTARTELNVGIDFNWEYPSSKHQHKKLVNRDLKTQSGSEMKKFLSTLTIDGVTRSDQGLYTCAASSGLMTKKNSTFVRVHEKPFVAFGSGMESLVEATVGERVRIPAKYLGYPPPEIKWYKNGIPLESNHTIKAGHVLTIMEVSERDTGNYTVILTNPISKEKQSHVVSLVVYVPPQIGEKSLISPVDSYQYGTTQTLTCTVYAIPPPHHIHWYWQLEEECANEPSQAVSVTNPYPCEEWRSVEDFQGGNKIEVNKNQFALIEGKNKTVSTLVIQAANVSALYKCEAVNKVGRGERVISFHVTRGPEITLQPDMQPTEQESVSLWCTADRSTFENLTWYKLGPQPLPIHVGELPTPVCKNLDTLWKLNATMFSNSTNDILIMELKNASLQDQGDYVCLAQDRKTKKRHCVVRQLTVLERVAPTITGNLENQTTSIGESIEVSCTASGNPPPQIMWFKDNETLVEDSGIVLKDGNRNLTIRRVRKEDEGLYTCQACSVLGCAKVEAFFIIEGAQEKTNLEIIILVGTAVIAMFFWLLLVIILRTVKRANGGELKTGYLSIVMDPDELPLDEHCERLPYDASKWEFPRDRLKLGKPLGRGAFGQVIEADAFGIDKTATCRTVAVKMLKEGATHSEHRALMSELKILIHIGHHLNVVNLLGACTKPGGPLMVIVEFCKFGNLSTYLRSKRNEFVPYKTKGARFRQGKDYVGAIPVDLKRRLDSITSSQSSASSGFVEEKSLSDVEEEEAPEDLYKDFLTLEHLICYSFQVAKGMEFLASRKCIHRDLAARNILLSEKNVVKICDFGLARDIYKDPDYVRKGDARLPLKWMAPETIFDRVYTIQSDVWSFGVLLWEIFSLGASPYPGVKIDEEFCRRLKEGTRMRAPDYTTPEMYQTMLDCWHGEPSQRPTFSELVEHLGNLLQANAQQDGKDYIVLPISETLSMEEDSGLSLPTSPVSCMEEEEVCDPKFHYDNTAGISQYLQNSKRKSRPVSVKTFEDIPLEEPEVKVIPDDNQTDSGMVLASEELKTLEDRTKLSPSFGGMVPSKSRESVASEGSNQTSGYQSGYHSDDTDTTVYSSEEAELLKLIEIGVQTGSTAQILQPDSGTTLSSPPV
# Experimental: as §1
# [2] = test system: HCT116 colon cancer cells; assay: Anti-proliferative MTT assay; type: cell-based; conditions: Homo sapiens, HCT-116, 24 h, read-out: % Growth inhibition ± SEM HCT116
# Experimental: (§2) To evaluate the anti-proliferative activity of the synthesised thiazolyl-pyrazoline derivatives (7a–7d, 10a–10d, and 13a–13f), a preliminary in vitro one dose (10 µM) anticancer assay was performed. Nine cell lines derived from five tumour subpanels were examined; leukaemia (K562 and KG-1a), breast (MCF-7, BT-549 and HCC70), lung (A549 and H441), colon (HCT116) and liver (HepG2) cancer cell lines. The compounds were added at a single concentration (10 µM) and the cultures were incubated for 24 h, then the per cent growth inhibition (%GI) was calculated.
# (§3) Human leukaemia (K562 and KG-1a), breast (MCF-7, BT-549 and HCC70), lung (A549, H441, NCI-H1650 and NCI-H1975), colon (HCT116), liver (HepG2) cancer cell lines and WI-38 human lung fibroblast cell line were obtained from the American Type Culture Collection (ATCC; Manassas, VA) and were cultured in their suitable media containing 10% foetal bovine serum (FBS; Sigma-Aldrich) in a humidified atmosphere with 5% CO2 at 37 °C. Gefitinib and vandetanib were purchased from Sigma-Aldrich. All chemicals used in this study were analytical or cell-culture grade.
# (§4) Cytotoxicity was measured using the MTT assay. Human leukaemia (K562 and KG-1a), breast (MCF-7, BT-549 and HCC70), lung (A549, H441, NCI-H1650 and NCI-H1975), colon (HCT116), liver (HepG2) cancer cell lines and WI-38 human lung fibroblast cell line were plated at a density of 1 × 10^4 cells per well in 96-well plates overnight and then treated with the compounds. After 24 h treatment, 20 μL of MTT solution (2 mg/mL in phosphate-buffered saline [PBS]) was added to each well and the cells were cultured for another 4 h at 37 °C. The medium was aspirated and 150 μL DMSO was added to solubilise MTT formazan crystals. The plates were then shaken, and the optical density was determined at 570 nm using an ELISA plate reader (Model 550, Bio-Rad, Hercules, CA). At least three independent experiments were performed. The IC50 values were calculated using GraphPad Prism 5 (Version 5.01, GraphPad Software, San Diego, CA).
# [3] = test system: BT-549 breast cancer cells; assay: Anti-proliferative MTT assay; type: cell-based; conditions: Homo sapiens, 24 h, read-out: % Growth inhibition ± SEM BT-549
# Experimental: as §2, §3, §4
# [4] = test system: HCC70 breast cancer cells; assay: Anti-proliferative MTT assay; type: cell-based; conditions: Homo sapiens, 24 h, read-out: % Growth inhibition ± SEM HCC70
# Experimental: as §2, §3, §4
# K562 leukaemia cells = assay: Anti-proliferative MTT assay; type: cell-based; conditions: Homo sapiens, 24 h, read-out: % Growth inhibition ± SEM K562
# Experimental: as §2, §3, §4
# KG-1a leukaemia cells = assay: Anti-proliferative MTT assay; type: cell-based; conditions: Homo sapiens, 24 h, read-out: % Growth inhibition ± SEM KG-1a
# Experimental: as §2, §3, §4
# HepG2 liver cancer cells = assay: Anti-proliferative MTT assay; type: cell-based; conditions: Homo sapiens, 24 h, read-out: % Growth inhibition ± SEM HepG2
# Experimental: as §2, §3, §4
# [5] = test system: MCF-7 breast cancer cells; assay: Anti-proliferative MTT assay; type: cell-based; conditions: Homo sapiens, MCF7, 24 h, read-out: % Growth inhibition ± SEM MCF-7
# Experimental: as §2, §3, §4
# [6] = test system: WI-38 human lung fibroblast cells; assay: MTT cytotoxicity assay on normal cells; type: cell-based; conditions: Homo sapiens, WI-38; normal lung fibroblasts, MTT, 24 h, n = 3; read-out: IC50 (µM) ± SEM WI-38
# Experimental: All chemicals used in this study were analytical or cell-culture grade.
# Cytotoxicity was measured using the MTT assay. […] The medium was aspirated and 150 μL DMSO was added to solubilise MTT formazan crystals. The plates were then shaken, and the optical density was determined at 570 nm using an ELISA plate reader (Model 550, Bio-Rad, Hercules, CA). At least three independent experiments were performed.
# A549 lung cancer cells = assay: Anti-proliferative MTT assay; conditions: Homo sapiens, A549, 24 h; for inhibition at 10 µM: read-out: % Growth inhibition ± SEM A549; for IC50: read-out: IC50 (µM) ± SEM A549
# VEGFR-2 = test system: VEGFR-2; design: method as in PMID 30641320; conditions: Figure 2; cited from earlier work
# A549 cells = assay: Cell cycle analysis by flow cytometry (7AAD); type: cell-based, human; conditions: A549, 20 µM, 24 h
# Experimental: Figure 6. […] (A) Representative cell cycle distribution data are shown by flow cytometric analysis upon incubation with 0 (control), 2.5 or 5 μM of 10b or 10d or with 0 (control), 5 or 20 μM of gefitinib for 24 h. (B) Quantification of cell cycle distribution upon 24 h incubation with 10b or 10d.
# DNA content was measured using 7-aminoactinmycin D (7AAD) (Biotium, Inc., Hayward, CA) staining and is commonly used for cell cycle phase analysis as previously described. Apoptosis was evaluated using the annexin V/propidium iodide (PI) staining kit (BioLegend, San Diego, CA) according to the manufacturer’s instructions and as previously described.
# Sequence of EGFR (P00533 25-1210): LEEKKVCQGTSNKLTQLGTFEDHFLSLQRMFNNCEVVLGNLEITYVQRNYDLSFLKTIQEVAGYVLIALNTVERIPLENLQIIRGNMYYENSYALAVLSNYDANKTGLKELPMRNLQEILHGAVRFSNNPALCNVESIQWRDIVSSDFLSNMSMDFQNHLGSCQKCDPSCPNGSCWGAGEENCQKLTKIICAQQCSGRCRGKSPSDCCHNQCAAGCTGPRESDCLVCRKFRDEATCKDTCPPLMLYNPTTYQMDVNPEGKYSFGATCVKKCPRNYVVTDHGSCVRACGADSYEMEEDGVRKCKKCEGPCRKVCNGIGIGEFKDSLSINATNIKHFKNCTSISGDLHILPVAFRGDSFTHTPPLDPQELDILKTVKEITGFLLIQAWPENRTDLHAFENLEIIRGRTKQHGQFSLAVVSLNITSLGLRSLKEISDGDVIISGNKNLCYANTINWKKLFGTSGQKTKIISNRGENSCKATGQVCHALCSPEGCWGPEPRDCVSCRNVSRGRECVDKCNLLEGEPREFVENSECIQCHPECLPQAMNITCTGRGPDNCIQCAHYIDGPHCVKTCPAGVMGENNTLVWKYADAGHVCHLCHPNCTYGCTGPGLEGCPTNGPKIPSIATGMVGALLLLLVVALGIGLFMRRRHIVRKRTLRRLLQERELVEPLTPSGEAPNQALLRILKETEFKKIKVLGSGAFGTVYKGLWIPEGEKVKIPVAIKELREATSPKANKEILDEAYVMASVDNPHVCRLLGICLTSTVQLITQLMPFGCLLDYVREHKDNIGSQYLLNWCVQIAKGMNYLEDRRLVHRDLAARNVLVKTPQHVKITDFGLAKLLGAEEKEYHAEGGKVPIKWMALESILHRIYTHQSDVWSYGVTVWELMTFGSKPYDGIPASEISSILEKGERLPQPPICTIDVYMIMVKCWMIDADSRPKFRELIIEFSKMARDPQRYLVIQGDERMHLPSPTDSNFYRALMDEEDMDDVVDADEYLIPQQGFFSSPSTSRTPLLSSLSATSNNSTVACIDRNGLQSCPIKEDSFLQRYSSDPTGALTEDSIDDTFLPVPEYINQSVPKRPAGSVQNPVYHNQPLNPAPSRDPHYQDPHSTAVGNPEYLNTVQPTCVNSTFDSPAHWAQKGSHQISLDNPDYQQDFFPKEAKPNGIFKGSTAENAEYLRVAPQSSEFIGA
Compound,inhibition at 10 µM (H441 lung cancer cells) [%],IC50 (H441 lung cancer cells) [µM],melting point [°C],IC50 (EGFR) [nM],IC50 [1] [nM],inhibition at 10 µM [2] [%],inhibition at 10 µM [3] [%],inhibition at 10 µM [4] [%],inhibition at 10 µM (K562 leukaemia cells) [%],inhibition at 10 µM (KG-1a leukaemia cells) [%],inhibition at 10 µM (HepG2 liver cancer cells) [%],inhibition at 10 µM [5] [%],IC50 [6] [µM],inhibition at 10 µM (A549 lung cancer cells) [%],IC50 (A549 lung cancer cells) [µM],IC50 (VEGFR-2) [nM],cell cycle arrest phase (A549 cells)
"COc1ccc(C2CC(c3ccc(Cl)cc3Cl)=NN2c2nc(C)c(N=Nc3ccc(Cl)cc3)s2)cc1 (centres unmarked) [Compound 13c, 5-((4-Chlorophenyl)diazenyl)-2-(3-(2,4-dichlorophenyl)-5-(4-methoxyphenyl)-4,5-dihydro-1H-pyrazol-1-yl)-4-methylthiazole]",19.9 ± 1.7,33.5 ± 3.9,170 to 171,134 ± 1.5,173 ± 2.6,8.7 ± 0.6,8.7 ± 1.9,1.1 ± 0.1,5.2 ± 0.9,12.4 ± 1.6,14.2 ± 1,10.4 ± 2.9,91.4 ± 8.9,14.8 ± 1,46.3 ± 2.5,–,–
"COc1ccc(C2CC(c3ccc(Cl)cc3Cl)=NN2c2nc(C)c(N=Nc3ccccc3)s2)cc1OC (centres unmarked) [Compound 13d, 2-(3-(2,4-Dichlorophenyl)-5-(3,4-dimethoxyphenyl)-4,5-dihydro-1H-pyrazol-1-yl)-4-methyl-5-(phenyldiazenyl)thiazole]",38.9 ± 2.4,21.7 ± 1.3,187 to 188,93.6 ± 3,336 ± 6.3,10.1 ± 3.5,14.2 ± 2.2,22.3 ± 1.3,18.2 ± 1.8,24.1 ± 2.7,18.6 ± 2.5,11.9 ± 1.8,64.2 ± 2.8,12.6 ± 2.7,57.1 ± 4.1,–,–
"COc1ccc(C2CC(c3ccc(Cl)cc3Cl)=NN2c2nc(C)c(N=Nc3ccc(C)cc3)s2)cc1OC (centres unmarked) [Compound 13e, 2-(3-(2,4-Dichlorophenyl)-5-(3,4-dimethoxyphenyl)-4,5-dihydro-1H-pyrazol-1-yl)-4-methyl-5-(p-tolyldiazenyl)thiazole]",46.9 ± 3.9,15.2 ± 3.6,176 to 177,67.7 ± 2,216 ± 4.3,9.9 ± 0.8,12.5 ± 1.5,16.1 ± 0.9,24 ± 2,15.2 ± 1.8,0.3,1.8 ± 0.6,87 ± 4.2,30.3 ± 2.4,19.1 ± 1.3,–,–
"COc1ccc(C2CC(c3ccc(Cl)cc3Cl)=NN2c2nc(C)c(N=Nc3ccc(Cl)cc3)s2)cc1OC (centres unmarked) [Compound 13f, 5-((4-Chlorophenyl)diazenyl)-2-(3-(2,4-dichlorophenyl)-5-(3,4-dimethoxyphenyl)-4,5-dihydro-1H-pyrazol-1-yl)-4-methylthiazole]",17.3 ± 0.6,24.8 ± 1.4,190 to 191,107 ± 1.2,113 ± 1.8,0.2,24.6 ± 1.3,6.3 ± 1,31.5 ± 1,20 ± 2.8,0.9 ± 0.3,0.8 ± 0.2,> 100,47.5 ± 3.1,13.7 ± 2.2,–,–
CN(C)c1ccc(C2CC(c3c(O)c4ccccc4oc3=O)=NN2c2nc(-c3ccccc3)c(/N=N/c3ccc(Cl)cc3)s2)cc1 (centres unmarked) [Compound IV],–,–,–,–,–,–,–,–,–,–,–,–,–,–,–,34,–
"COc1cc2ncnc(Nc3ccc(F)c(Cl)c3)c2cc1OCCCN1CCOCC1 [Gefitinib, reference compound]",–,–,–,–,–,–,–,–,–,–,–,–,–,–,–,–,significantly arrested the cell cycle at G1 phase

# — publication PMC9415638, “Discovery of novel thiazolyl-pyrazolines as dual EGFR and VEGFR-2 inhibitors endowed with in vitro antitumor activity towards non-small lung cancer” (Journal of Enzyme Inhibition and Medicinal Chemistry, 2022)
